As usually defined, the Ki is a dissociation constant, usually derived from enzyme kinetics or from competition with a known ligand. The term IC50 denotes the midpoint of a concentration-inhibition curve. The inhibition is the relative decrease from the control value, in per cent. As a reminder, the Papp is a coefficient for how fast a substance crosses the barrier. High values mean fast passage, low ones slow passage.

Results on ten compounds are retold here after ChEMBL document CHEMBL4304786, “A novel class of multitarget anti-Alzheimer benzohomoadamantane‒chlorotacrine hybrids modulating cholinesterases and glutamate NMDA receptors” (Eur J Med Chem, 2019).

The structures appear in SMILES notation.

Series [1] addresses Glutamate NMDA receptor; GRIN1/GRIN2B (Homo sapiens, UniProt Q05586+Q13224). The series is described as follows: Inhibition of recombinant GluN1/GluN2B receptor (unknown origin) expressed in HEK293 cells by patch-clamp method. The class given is cell-based.
For series [2], the target named is T1, Acetylcholinesterase (Homo sapiens, UniProt P22303). The series is described as follows: Inhibition of human recombinant AChE expressed in HEK293 cells using acetylthiocholine iodide as substrate preincubated for 20 mins followed by substrate addition by spectrophotometry analysis.
T1 sequence (P22303 whole entry): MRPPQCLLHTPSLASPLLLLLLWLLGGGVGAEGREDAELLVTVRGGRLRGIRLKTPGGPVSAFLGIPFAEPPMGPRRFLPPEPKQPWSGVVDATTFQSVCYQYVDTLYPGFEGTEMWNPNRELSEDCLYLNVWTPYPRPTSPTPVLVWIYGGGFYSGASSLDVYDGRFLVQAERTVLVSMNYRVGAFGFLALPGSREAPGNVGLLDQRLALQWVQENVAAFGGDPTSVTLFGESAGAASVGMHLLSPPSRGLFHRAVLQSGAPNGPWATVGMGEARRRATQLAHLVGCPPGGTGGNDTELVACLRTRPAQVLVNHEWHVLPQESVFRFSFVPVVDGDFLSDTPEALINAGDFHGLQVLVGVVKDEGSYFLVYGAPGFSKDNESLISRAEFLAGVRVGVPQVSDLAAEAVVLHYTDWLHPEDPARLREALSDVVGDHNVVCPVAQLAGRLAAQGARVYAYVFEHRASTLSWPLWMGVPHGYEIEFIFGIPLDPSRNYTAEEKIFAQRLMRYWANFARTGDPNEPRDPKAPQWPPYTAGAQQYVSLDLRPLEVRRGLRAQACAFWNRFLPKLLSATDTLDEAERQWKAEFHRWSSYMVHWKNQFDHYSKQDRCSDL
Series [3] addresses T2, Cholinesterase (Homo sapiens, UniProt P06276). The series can be described thus: Inhibition of human serum BChE using butyrylthiocholine iodide as substrate preincubated for 20 mins followed by substrate addition by spectrophotometry analysis.
For the next series, the target named is Glutamate NMDA receptor. The series is described as follows: Antagonist activity at NMDA receptor in rat CGN cells assessed as […] in intracellular calcium level incubated for 30 mins in presence of Fura-2AM followed by NMDA/glycine stimulation by fluorescence spectrometer analysis. The class given is cell-based.
The target in series [4] is Amyloid-beta precursor protein (Homo sapiens) (UniProt P05067). The series is described as follows: Inhibition of human recombinant amyloid beta (1 to 42) aggregation expressed in Escherichia coli BL21 (DE3) at 10 uM by Thioflavin S steady state fluorescence assay relative to control.
Amyloid-beta precursor protein (Homo sapiens), sequence (P05067 whole entry): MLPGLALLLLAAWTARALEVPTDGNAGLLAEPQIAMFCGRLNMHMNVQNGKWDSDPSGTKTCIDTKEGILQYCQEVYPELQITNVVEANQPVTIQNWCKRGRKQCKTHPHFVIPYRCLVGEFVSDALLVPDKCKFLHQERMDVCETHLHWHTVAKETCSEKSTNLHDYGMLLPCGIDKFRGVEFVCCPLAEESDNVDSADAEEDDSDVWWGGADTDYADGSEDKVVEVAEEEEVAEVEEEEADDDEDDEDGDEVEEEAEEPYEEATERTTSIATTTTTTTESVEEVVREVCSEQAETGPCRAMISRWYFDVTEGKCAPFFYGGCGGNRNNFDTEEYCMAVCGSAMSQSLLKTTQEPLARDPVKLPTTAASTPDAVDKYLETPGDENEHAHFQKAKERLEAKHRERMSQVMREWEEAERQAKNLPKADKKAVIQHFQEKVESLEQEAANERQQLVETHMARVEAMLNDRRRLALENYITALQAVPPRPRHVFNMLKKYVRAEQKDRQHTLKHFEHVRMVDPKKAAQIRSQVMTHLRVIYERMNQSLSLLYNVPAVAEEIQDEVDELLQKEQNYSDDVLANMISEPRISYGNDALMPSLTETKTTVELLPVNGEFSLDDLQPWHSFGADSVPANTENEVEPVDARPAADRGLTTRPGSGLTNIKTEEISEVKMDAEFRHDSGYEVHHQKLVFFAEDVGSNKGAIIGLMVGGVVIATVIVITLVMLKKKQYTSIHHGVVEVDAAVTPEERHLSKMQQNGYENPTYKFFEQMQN
Series [5] has as its target Microtubule-associated protein tau (Homo sapiens) (UniProt P10636). The series can be described thus: Inhibition of tau aggregation (unknown origin) expressed in Escherichia coli BL21 (DE3) at 10 uM by Thioflavin S steady state fluorescence assay relative to control.
Series [6] concerns the target Beta-secretase 1 (Homo sapiens) (UniProt P56817). The series can be described thus: Inhibition of human recombinant BACE-1 expressed in baculovirus expression system at 5 uM using panvera peptide as substrate measured after 1 hr by FRET assay relative to control.
For series [7], the target named is T1, Acetylcholinesterase. The series can be described thus: Potency index, ratio of IC50 for 6-cholorotacrine to compound IC50 for Inhibition of human recombinant AChE expressed in HEK293 cells. The class given is cell-based.
In series [8] the target is T2, Cholinesterase. The series can be described thus: Potency index, ratio of IC50 for 6-cholorotacrine to compound IC50 for Inhibition of human serum BChE.
The next series is described as follows: in vitro. To be noted: PAMPA. A general note: The PAMPA barrier holds no transporters, so it reflects passive diffusion.
The target of series [9] is T3, Glutamate NMDA receptor (Rattus norvegicus) (UniProt P35439+Q00959+Q00960+Q00961+Q62645+Q8VHN2+Q9R1M7). The series can be described thus: Potency index, ratio of memantine IC50 to compound IC50 for antagonist activity at NMDA receptor in rat CGN cells. The class given is cell-based.
Series [10] addresses T3, Glutamate NMDA receptor (Rattus norvegicus). The series is described as follows: Potency index, ratio of benzoho-moadamantanamine IC50 to compound IC50 for antagonist activity at NMDA receptor in rat CGN cells. Type of series: cell-based.

Microtubule-associated protein tau (Homo sapiens), sequence (P10636 whole entry): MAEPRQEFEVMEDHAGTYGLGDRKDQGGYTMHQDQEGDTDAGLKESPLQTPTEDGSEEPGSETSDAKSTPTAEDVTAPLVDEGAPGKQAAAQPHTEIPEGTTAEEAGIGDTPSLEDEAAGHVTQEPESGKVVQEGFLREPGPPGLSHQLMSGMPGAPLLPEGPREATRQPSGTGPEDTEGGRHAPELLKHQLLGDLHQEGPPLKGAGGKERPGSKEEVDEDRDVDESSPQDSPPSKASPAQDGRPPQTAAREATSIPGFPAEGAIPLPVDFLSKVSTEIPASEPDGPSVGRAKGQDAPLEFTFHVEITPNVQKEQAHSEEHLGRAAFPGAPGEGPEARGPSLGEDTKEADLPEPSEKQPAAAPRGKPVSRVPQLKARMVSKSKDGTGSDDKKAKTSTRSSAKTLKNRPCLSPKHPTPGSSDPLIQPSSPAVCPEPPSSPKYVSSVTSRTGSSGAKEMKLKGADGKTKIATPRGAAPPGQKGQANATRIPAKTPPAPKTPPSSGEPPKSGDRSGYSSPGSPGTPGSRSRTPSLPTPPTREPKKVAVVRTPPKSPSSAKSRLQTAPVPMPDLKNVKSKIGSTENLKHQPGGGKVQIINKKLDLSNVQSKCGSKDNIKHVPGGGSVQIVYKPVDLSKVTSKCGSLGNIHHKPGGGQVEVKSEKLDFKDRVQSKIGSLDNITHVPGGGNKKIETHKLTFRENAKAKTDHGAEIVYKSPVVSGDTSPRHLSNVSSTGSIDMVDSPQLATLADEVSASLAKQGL
Beta-secretase 1 (Homo sapiens), sequence (P56817 whole entry): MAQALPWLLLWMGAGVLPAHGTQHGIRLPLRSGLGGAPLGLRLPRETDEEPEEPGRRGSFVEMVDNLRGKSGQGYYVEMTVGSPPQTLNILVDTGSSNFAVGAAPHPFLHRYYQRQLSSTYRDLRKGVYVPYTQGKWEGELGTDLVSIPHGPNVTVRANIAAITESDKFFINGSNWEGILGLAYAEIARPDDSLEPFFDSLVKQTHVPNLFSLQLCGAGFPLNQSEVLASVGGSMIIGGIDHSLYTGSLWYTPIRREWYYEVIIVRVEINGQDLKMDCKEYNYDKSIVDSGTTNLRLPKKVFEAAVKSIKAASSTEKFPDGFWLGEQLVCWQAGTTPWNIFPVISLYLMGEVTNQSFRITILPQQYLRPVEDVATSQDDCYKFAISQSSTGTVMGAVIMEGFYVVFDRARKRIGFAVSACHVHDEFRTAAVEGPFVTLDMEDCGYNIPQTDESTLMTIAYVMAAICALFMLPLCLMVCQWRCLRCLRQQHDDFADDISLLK
T2 sequence (P06276 whole entry): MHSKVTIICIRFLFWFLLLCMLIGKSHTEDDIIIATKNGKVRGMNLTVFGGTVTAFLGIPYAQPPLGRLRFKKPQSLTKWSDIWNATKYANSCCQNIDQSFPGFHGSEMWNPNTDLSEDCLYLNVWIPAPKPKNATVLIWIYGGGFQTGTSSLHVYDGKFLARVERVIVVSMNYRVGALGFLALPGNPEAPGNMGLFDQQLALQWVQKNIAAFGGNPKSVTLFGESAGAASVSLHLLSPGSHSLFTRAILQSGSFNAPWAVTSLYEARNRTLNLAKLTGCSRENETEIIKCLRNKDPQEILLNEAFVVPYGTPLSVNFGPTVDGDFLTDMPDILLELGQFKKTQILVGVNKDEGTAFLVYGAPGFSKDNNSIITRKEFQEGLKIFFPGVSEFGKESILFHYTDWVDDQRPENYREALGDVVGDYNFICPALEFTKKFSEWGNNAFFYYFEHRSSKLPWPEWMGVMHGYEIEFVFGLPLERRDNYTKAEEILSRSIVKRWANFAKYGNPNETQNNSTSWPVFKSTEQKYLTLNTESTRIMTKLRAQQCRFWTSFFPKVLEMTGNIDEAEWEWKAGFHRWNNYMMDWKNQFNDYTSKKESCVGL
Glutamate NMDA receptor; GRIN1/GRIN2B, sequence (Q13224 whole entry, other chains not shown): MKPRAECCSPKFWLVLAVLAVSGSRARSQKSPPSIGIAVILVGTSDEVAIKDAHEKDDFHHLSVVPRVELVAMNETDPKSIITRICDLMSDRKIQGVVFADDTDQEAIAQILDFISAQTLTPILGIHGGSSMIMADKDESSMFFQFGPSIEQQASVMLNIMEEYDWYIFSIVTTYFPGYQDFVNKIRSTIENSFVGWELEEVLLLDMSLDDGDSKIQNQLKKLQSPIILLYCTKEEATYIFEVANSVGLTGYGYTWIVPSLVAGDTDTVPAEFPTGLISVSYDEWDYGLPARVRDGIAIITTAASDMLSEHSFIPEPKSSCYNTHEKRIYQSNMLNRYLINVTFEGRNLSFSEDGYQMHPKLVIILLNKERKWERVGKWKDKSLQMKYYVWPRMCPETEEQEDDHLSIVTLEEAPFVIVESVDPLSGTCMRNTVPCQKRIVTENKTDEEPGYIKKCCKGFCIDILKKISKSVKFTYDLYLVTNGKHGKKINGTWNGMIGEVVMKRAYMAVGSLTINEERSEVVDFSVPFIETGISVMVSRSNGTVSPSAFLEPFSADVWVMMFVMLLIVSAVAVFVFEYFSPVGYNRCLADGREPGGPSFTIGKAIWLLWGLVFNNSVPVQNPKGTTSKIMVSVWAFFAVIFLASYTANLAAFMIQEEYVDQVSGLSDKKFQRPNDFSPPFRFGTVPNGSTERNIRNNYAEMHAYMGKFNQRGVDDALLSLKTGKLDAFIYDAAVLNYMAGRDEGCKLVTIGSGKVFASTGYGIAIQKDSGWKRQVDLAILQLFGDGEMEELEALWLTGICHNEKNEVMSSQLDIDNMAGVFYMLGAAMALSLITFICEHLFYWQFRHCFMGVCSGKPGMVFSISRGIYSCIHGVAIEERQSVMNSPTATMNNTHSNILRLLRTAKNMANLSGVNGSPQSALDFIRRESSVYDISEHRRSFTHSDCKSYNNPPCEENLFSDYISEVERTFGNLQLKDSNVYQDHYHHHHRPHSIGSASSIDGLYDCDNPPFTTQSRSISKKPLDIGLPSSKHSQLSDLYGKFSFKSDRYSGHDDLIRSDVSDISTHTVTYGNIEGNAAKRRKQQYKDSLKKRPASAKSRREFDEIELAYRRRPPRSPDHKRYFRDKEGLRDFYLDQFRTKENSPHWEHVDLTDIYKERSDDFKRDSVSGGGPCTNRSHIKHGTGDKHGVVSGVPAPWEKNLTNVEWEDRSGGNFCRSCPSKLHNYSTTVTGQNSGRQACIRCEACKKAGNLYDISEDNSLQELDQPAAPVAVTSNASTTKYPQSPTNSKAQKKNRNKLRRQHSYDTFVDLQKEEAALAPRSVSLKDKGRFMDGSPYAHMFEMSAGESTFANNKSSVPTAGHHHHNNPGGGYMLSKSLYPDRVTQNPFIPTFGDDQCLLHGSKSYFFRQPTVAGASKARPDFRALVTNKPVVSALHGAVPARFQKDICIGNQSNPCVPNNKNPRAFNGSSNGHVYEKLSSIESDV
Description for in vitro: Permeability of the compound measured after compound dilution in PBS/EtOH buffer (70:30) by PAMPA-BBB assay

With `COc1ccc2nc3c(c(NCCCCCNC(=S)NC45CC6CC(CC(C6)C4)C5)c2c1)CCCC3`, in series [1], the Ki is 1800 nM.
With `NC12CC3CC(F)(CC(C1)c1cc(NC(=O)CCCCNc4c5c(nc6cc(Cl)ccc46)CCCC5)ccc13)C2` (configuration not stated), the IC50 is 2.5 nM on Acetylcholinesterase [2], 20 nM on Cholinesterase [3] and 3400 nM on Glutamate NMDA receptor. The values for the inhibition in series [4], in series [5] and in [6] were under 5%, 22.9% and 18%, respectively. The Ratio IC50 at Acetylcholinesterase [7] came to 44; on Cholinesterase [8] it was 24. This compound also displayed a Papp in “in vitro” of 3.1 ×10⁻⁶ cm/s.
Turning to `NC12CC3CC(F)(CC(C1)c1ccccc13)C2`, at Glutamate NMDA receptor, the IC50 is 1900 nM. Further, the Ratio IC50 in series [9] is 1.7. In series [6], the inhibition came out at 18%.
For `FC12CC3CC(NCCCCNc4c5c(nc6cc(Cl)ccc46)CCCC5)(CC(C1)c1ccccc13)C2`, the IC50 on Acetylcholinesterase [2] was determined as 2 nM; at Cholinesterase [3], 1100 nM; at Glutamate NMDA receptor it was 3300 nM. Further, the figures for the inhibition in series [4], in [5] and in [6] were 8.4%, 22% and 18%, respectively. In addition, the Ratio IC50 at Acetylcholinesterase [7] was 6 to 44. The compound further came in with a Papp in the series “in vitro” of 6.3 ×10⁻⁶ cm/s.
With `CC12CC3CC(C)(C1)CC(N)(C3)C2`, in series [6], the inhibition turned out to be 18%.
With `O=C(CCCNc1c2c(nc3cc(Cl)ccc13)CCCC2)NC12CC3CC(F)(CC(C1)c1ccccc13)C2`, the IC50 on Acetylcholinesterase [2] was 1.4 nM; on Cholinesterase [3] it was 2300 nM; at Glutamate NMDA receptor, 7000 nM. The inhibition in [4] was under 5%; in [5] it was 10.2%; in [6], 18%. In addition, the Ratio IC50 on Acetylcholinesterase [7] fell in the range of 6 to 44. The same compound yielded a Papp in “in vitro” of 9.8 ×10⁻⁶ cm/s.
For `Nc1c2c(nc3cc(Cl)ccc13)CCCC2`, the figures for the inhibition in series [5] and in [6] were under 5% and 18%, respectively. Further, the Papp in the series “in vitro” turned out to be 20 ×10⁻⁶ cm/s.
As for `FC12CC3CC(NCCCCCNc4c5c(nc6cc(Cl)ccc46)CCCC5)(CC(C1)c1ccccc13)C2`, the Ratio IC50 in series [10] was 2; in series [9], 1.7; on Acetylcholinesterase [7] it was 6 to 44; on Cholinesterase [8] it was 2. For the same compound, the figures for the IC50 at Acetylcholinesterase [2], on Cholinesterase [3] and at Glutamate NMDA receptor were 1.4 nM, 200 nM and 900 nM, respectively. For the same compound, the results for the inhibition in series [4], in series [5] and in series [6] were 12.3%, 20.7% and 18%, respectively. For the same compound, the Papp in the series “in vitro” worked out at 6.5 ×10⁻⁶ cm/s.
On to `NC12CC3CC(F)(CC(C1)c1cc(NC(=O)CCCNc4c5c(nc6cc(Cl)ccc46)CCCC5)ccc13)C2` (configuration not stated), for which the Ratio IC50 in series [10] is 2; in series [9], 1.7; at Acetylcholinesterase [7], 6 to 44. The IC50 at Acetylcholinesterase [2] was found to be 0.3 nM; on Cholinesterase [3], 500 nM; at Glutamate NMDA receptor it was 1200 nM. Besides, the values for the inhibition in series [4], in [5] and in series [6] were under 5%, 6.9% and 18%, respectively. In “in vitro”, this compound gave a Papp of 2.7 ×10⁻⁶ cm/s.
For the compound `O=C(CCCCNc1c2c(nc3cc(Cl)ccc13)CCCC2)NC12CC3CC(F)(CC(C1)c1ccccc13)C2`, the IC50 at Acetylcholinesterase [2] is 1.3 nM; against Cholinesterase [3] it was 2400 nM; on Glutamate NMDA receptor, 8300 nM. Also, the inhibition in [4] came to 9%; in [5] it was 12.6%; in series [6] it was 18%. The Ratio IC50 at Acetylcholinesterase [7] fell in the range of 6 to 44. In the series “in vitro”, this compound came in with a Papp of 9 ×10⁻⁶ cm/s.
